Experimental data as given in patent US7220437B2, “Antiviral and antibacterial activities of extracts from eight plants” (priority 1996, dated 2007).
Values after ≈ are worked out from the molar mass of the structure shown. Where a name gives a salt, the structure may show the parent alone. Marks after values point to notes of the source that are not given here.

What was measured:
[1] = tested on: HIV-1 strain GH3; test: Anti-HIV cytopathicity, acute infection of M8166 cells; format: cell-based; settings: high multiplicity of infection of 0.11424
[2] = tested on: HIV-2 strain GH1; test: Anti-HIV-2 cytopathicity in Molt 4 clone 8 cells; format: cell-based
[3] = tested on: Staphylococcus aureus; test: Bacteria growth, tetrazolium-based colorimetry
[4] = tested on: Edwardsiella species; test: Bacteria growth, tetrazolium-based colorimetry
[5] = tested on: Salmonella typhimurium; test: Bacteria growth, tetrazolium-based colorimetry
[6] = tested on: Klebsiella pneumoniae; test: Bacteria growth, tetrazolium-based colorimetry
[7] = tested on: PBMCs; test: Ex vivo effects on culture induced death of PBMCs of AIDS patients; format: cell-based, human; settings: four AIDS patients; noncytotoxic concentrations
[8] = tested on: PBMCs
[9] = MOI 0.018, treatment after 40 mins of virus adsorption
[10] = Edwardsiella, inoculum 10^1 CID50
[11] = Edwardsiella, inoculum 10^2 CID50
[12] = Edwardsiella, inoculum 10^3 CID50
[13] = Salmonella enterica, TYPHIMURIUM

Q: `Cc1cn([C@H]2C[C@H](N=[N+]=[N-])[C@@H](CO)O2)c(=O)[nH]c1=O` [AZT, 3′-azido-2′,3′-dideoxythymidine] was tested. Which cell protection [1] did it give?
A: < 90%

Q: What about the EC50 ([2]; MOI 0.018, treatment 2 hrs after virus adsorption) of the same compound?
A: 0.000001 mg/mL (≈ 0.00374 µM)

Q: What about the EC50 [2, 9] of the same compound?
A: <0.0000003* mg/ml

Q: What about the EC90 [2, 9] of the same compound?
A: 0.3 µg/mL (≈ 1.12 µM)

Q: Which results are given for `CC1(C)S[C@@H]2[C@H](NC(=O)Cc3ccccc3)C(=O)N2[C@H]1C(=O)[O-].[Na+]` [Penicillin G, sodium penicillin G]?
A: EC50 ([3]; inoculum 10^1 CID50): <0.5 µg/mL; EC90 ([3]; inoculum 10^1 CID50): <0.5 µg/mL; EC50 ([3]; inoculum 10^2 CID50): <0.5 µg/mL; EC90 ([3]; inoculum 10^2 CID50): <0.5 µg/mL; EC50 ([3]; inoculum 10^3 CID50): 2 µg/mL; EC90 ([3]; inoculum 10^3 CID50): 2 to 4 µg/mL; EC50 ([4]; inoculum 10^1 CID50): 196 to 392 µg/mL; EC90 ([4]; inoculum 10^1 CID50): 392 µg/mL; EC50 ([4]; inoculum 10^2 CID50): 196 to 392 µg/mL; EC90 ([4]; inoculum 10^2 CID50): 392 to 784 µg/mL; EC50 ([4]; inoculum 10^3 CID50): >0.784* mg/ml; EC90 ([4]; inoculum 10^3 CID50): >784 µg/mL; EC50 ([5]; inoculum 10^1 CID50): 157 to 314 µg/mL; EC90 ([5]; inoculum 10^1 CID50): 0.157–0.314* mg/ml; EC50 ([6]; inoculum 10^2 CID50): 75 µg/mL; EC90 ([6]; inoculum 10^2 CID50): 130 µg/mL

Q: `[H]/N=C(/N)N[C@H]1[C@H](O)[C@@H](O)[C@H](O[C@@H]2O[C@@H](C)[C@](O)(C=O)[C@H]2O[C@@H]2O[C@@H](CO)[C@H](O)[C@@H](O)[C@@H]2NC)[C@@H](N/C(N)=N\[H])[C@@H]1O` [Streptomycin sulfate, streptomycin sulfate] was tested. Which EC50 ([3]; Staphylococcus aureus) did it give?
A: < 0.4 µg/mL

Q: What about the EC90 ([3]; Staphylococcus aureus) of the same compound?
A: < 0.4 µg/mL

Q: And the EC50 ([3]; inoculum 10^2 CID50)?
A: <0.4 µg/mL

Q: And the EC90 ([3]; inoculum 10^2 CID50)?
A: <0.4 µg/mL

Q: And the EC50 ([3]; inoculum 10^3 CID50)?
A: <0.4 µg/mL

Q: And the EC90 ([3]; inoculum 10^3 CID50)?
A: <0.4 µg/mL

Q: What about the EC50 [4, 10] of the same compound?
A: 63 µg/mL

Q: What about the EC90 [4, 10] of the same compound?
A: 63 to 125 µg/mL

Q: And the EC50 [4, 11]?
A: 63 µg/mL

Q: What about the EC90 [4, 11] of the same compound?
A: 500 µg/mL

Q: What about the EC50 [4, 12] of the same compound?
A: > 500 µg/mL

Q: And the EC90 [4, 12]?
A: > 500 µg/mL

Q: And the EC50 [5, 13]?
A: 16 to 32 µg/mL

Q: And the EC90 [5, 13]?
A: 16 to 32 µg/mL

Q: And the EC50 ([5]; inoculum 10^2 CID50)?
A: 16 to 32 µg/mL

Q: What about the EC90 ([5]; inoculum 10^2 CID50) of the same compound?
A: 16 to 32 µg/mL

Q: And the EC50 ([5]; inoculum 10^3 CID50)?
A: 16 to 32 µg/mL

Q: What about the EC90 ([5]; inoculum 10^3 CID50) of the same compound?
A: 16 to 32 µg/mL

Q: What about the EC50 ([6]; Klebsiella pneumoniae) of the same compound?
A: < 1 µg/mL

Q: What about the EC90 ([6]; Klebsiella pneumoniae) of the same compound?
A: < 1 µg/mL

Q: Which results are given for `Nc1ccn([C@H]2CC[C@@H](CO)O2)c(=O)n1` [ddCyd, 2′,3′-dideoxycytidine]?
A: accelerated culture induced death of PBMCs from AIDS patients [7]: effective in these patients except one AIDS patient; toxicity towards PBMCs from the healthy person [8]: no toxicity

Q: `OC[C@@H]1CC[C@H](n2cnc3c(O)ncnc32)O1` [ddino, 2′,3′-dideoxyinosine] was tested. Which “accelerated culture induced death of PBMCs from AIDS patients” value [7] did it give?
A: effective in these patients except one AIDS patient
